Measured values from ChEMBL document CHEMBL5550200, “Back-Pocket Optimization of 2-Aminopyrimidine-Based Macrocycles Leads to Potent EPHA2/GAK Kinase Inhibitors” (J Med Chem, 2024).

What was measured:
Ephrin type-A receptor 2 = Ephrin type-A receptor 2 (Homo sapiens, UniProt P29317)
Description: Induction of stabilization of recombinant EPHA2 (D596 to G900 residues) (unknown origin) expressed in Escherichia coli rosetta BL21(D3)-R3-pRARE2 competent cells assessed as change in melting temperature by differential scanning fluorimetry assay

[1] = biological target: Ephrin type-A receptor 7 (Homo sapiens) (UniProt Q15375); assay: Induction of stabilization of recombinant EPHA7 (unknown origin) assessed as change in melting temperature by differential scanning fluorimetry assay
[2] = biological target: T1, Cyclin-G-associated kinase (Homo sapiens) (UniProt O14976)
T1 sequence (whole entry): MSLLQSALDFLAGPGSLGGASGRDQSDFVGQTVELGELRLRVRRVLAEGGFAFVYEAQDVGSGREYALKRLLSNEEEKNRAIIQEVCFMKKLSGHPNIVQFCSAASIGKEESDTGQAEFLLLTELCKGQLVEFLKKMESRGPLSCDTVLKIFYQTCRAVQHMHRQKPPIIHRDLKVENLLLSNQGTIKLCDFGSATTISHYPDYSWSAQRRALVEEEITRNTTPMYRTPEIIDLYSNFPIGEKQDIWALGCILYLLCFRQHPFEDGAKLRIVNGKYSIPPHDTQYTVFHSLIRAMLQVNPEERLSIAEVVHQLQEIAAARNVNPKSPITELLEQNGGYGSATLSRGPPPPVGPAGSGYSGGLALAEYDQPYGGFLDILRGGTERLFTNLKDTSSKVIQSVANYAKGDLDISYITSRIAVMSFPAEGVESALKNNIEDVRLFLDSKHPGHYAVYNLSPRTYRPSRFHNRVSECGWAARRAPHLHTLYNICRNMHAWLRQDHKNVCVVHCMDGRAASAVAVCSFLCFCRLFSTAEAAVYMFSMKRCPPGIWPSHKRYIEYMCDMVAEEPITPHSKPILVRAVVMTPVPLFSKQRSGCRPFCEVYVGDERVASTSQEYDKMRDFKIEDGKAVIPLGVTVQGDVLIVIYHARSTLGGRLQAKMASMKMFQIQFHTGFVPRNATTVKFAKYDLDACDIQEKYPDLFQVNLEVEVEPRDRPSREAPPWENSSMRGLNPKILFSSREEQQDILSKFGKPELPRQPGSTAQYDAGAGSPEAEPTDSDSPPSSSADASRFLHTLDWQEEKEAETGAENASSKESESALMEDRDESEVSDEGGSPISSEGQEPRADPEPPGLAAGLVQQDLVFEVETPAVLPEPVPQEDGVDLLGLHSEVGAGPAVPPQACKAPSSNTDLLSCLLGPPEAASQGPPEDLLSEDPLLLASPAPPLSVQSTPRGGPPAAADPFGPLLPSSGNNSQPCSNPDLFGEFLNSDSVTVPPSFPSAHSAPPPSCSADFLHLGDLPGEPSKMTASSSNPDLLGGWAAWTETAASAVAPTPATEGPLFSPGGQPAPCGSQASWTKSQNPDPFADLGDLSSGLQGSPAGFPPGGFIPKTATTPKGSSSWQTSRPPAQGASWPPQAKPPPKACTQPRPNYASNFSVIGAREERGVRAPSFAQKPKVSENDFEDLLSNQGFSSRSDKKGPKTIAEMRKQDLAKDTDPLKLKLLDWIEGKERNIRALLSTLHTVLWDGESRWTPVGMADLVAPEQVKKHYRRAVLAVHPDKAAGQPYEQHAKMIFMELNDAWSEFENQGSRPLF
Description: Induction of stabilization of recombinant GAK (unknown origin) assessed as change in melting temperature by differential scanning fluorimetry assay

[3] = biological target: Fibroblast growth factor receptor 2 (Homo sapiens) (UniProt P21802)
Description: Induction of stabilization of recombinant FGFR2 (unknown origin) assessed as change in melting temperature by differential scanning fluorimetry assay

Ephrin type-A receptor 4 = Ephrin type-A receptor 4 (Homo sapiens, UniProt P54764); assay: Induction of stabilization of recombinant EPHA4 (unknown origin) assessed as change in melting temperature by differential scanning fluorimetry assay
[4] = biological target: T2, Ephrin type-B receptor 3 (Homo sapiens) (UniProt P54753); assay: Induction of stabilization of recombinant EPHB3 (unknown origin) assessed as change in melting temperature by differential scanning fluorimetry assay
T2 sequence (whole entry): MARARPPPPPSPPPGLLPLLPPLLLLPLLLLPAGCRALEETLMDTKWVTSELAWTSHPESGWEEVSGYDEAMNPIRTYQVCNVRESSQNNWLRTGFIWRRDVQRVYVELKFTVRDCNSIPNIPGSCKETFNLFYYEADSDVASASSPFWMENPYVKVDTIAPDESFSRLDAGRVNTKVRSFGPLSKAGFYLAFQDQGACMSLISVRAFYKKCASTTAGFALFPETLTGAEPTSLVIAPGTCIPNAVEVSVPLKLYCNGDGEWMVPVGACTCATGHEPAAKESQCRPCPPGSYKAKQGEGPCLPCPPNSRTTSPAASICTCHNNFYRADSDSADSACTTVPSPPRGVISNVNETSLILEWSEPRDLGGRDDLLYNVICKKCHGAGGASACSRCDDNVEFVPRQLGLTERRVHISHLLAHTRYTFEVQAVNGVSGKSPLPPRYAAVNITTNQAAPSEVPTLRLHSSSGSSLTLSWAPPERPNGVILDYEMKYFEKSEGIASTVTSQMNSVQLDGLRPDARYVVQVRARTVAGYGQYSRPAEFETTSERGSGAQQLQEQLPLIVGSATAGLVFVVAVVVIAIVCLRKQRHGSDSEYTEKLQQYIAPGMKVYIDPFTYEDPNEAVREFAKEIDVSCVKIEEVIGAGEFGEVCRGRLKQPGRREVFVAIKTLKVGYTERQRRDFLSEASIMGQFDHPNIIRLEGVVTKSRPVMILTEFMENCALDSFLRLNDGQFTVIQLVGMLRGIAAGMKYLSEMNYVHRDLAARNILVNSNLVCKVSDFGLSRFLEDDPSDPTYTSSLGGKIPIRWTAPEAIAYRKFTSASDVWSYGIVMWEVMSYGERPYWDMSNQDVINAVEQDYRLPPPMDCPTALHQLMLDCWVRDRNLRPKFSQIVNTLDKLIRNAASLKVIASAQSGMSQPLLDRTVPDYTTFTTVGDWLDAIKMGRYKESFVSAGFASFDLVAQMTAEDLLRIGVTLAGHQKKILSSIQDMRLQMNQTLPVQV

[5] = biological target: Fibroblast growth factor receptor 1 (Homo sapiens, UniProt P11362)
Description: Induction of stabilization of recombinant FGFR1 (unknown origin) assessed as change in melting temperature by differential scanning fluorimetry assay

[6] = biological target: Vascular endothelial growth factor receptor 1 (Homo sapiens, UniProt P17948); assay: Induction of stabilization of recombinant FLT1 (unknown origin) assessed as change in melting temperature by differential scanning fluorimetry assay
[7] = biological target: T3, Ephrin type-B receptor 1 (Homo sapiens) (UniProt P54762); assay: Induction of stabilization of recombinant EPHB1 (unknown origin) assessed as change in melting temperature by differential scanning fluorimetry assay
T3 sequence (whole entry): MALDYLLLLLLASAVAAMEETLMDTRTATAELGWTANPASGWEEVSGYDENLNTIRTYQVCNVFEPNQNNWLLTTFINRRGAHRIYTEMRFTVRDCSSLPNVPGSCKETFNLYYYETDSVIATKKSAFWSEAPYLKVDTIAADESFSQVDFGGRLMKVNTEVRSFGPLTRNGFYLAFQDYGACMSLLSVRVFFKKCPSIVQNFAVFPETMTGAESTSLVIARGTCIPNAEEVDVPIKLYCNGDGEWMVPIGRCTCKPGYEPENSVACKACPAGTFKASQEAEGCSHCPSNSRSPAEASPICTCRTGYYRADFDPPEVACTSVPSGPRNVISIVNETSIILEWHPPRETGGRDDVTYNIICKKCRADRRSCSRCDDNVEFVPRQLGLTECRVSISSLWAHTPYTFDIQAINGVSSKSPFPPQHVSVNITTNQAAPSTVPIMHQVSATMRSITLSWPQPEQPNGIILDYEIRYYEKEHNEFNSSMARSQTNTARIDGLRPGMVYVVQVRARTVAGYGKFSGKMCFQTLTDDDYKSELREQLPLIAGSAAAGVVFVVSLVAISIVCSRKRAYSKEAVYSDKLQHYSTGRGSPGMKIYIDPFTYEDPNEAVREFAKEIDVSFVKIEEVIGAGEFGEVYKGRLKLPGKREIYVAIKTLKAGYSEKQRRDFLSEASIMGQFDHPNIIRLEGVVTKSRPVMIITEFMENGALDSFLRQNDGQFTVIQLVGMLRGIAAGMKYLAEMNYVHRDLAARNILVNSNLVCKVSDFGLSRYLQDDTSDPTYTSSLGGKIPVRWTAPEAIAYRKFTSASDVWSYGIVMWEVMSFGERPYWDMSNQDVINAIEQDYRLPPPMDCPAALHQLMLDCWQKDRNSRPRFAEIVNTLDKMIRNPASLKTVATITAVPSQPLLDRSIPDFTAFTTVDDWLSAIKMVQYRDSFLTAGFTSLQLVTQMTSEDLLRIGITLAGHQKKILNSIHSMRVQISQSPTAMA

[8] = biological target: Ephrin type-A receptor 5 (Homo sapiens) (UniProt P54756)
Description: Induction of stabilization of recombinant EPHA5 (unknown origin) assessed as change in melting temperature by differential scanning fluorimetry assay

Chain of Fibroblast growth factor receptor 2 (Homo sapiens) (P21802 22-821 limits assumed): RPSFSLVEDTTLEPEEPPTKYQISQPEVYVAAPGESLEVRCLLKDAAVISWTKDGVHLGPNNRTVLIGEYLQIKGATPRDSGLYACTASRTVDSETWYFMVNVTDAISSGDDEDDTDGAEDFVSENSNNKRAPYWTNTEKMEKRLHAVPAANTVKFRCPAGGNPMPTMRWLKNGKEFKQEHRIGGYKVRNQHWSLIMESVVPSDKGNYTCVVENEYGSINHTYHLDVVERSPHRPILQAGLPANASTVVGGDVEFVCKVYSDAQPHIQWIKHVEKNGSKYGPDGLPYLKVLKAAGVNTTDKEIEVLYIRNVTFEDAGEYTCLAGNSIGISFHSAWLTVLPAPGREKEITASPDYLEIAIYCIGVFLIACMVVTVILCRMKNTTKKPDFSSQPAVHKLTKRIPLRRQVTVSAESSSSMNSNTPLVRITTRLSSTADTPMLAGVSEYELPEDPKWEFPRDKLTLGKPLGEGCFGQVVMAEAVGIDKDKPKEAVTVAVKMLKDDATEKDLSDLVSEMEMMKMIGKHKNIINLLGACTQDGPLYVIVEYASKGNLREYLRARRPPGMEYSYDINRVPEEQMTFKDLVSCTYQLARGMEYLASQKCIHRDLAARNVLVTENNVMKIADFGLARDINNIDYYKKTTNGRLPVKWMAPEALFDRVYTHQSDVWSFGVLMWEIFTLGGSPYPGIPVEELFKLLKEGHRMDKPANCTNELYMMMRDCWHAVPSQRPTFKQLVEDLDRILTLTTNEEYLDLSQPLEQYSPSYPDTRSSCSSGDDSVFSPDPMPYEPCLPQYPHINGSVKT
Chain of Ephrin type-A receptor 7 (Homo sapiens) (Q15375 28-998 limits assumed): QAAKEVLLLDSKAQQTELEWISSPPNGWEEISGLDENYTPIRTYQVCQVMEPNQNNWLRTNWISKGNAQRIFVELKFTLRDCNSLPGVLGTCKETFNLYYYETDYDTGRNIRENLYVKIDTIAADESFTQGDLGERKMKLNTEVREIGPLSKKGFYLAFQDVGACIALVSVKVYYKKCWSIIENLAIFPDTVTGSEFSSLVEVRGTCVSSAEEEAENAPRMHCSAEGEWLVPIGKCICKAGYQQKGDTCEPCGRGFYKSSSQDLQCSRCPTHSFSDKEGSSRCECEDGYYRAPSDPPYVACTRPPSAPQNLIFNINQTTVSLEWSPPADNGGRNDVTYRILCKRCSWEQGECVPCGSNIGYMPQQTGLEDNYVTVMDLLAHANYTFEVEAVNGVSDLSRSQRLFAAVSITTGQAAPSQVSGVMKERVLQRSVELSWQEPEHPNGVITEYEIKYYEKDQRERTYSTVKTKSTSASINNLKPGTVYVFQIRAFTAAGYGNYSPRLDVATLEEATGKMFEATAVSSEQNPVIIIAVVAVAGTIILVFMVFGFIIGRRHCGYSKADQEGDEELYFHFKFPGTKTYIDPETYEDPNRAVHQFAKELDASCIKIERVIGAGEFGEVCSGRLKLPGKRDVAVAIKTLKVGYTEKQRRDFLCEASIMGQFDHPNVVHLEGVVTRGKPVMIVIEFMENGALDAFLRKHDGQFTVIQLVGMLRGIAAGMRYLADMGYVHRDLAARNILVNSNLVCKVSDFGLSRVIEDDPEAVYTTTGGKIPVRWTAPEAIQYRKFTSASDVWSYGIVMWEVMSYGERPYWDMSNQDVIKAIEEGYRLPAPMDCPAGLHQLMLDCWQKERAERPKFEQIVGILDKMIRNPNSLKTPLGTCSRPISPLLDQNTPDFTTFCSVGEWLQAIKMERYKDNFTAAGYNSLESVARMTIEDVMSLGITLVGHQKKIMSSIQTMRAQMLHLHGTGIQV
Chain of Vascular endothelial growth factor receptor 1 (P17948 whole entry): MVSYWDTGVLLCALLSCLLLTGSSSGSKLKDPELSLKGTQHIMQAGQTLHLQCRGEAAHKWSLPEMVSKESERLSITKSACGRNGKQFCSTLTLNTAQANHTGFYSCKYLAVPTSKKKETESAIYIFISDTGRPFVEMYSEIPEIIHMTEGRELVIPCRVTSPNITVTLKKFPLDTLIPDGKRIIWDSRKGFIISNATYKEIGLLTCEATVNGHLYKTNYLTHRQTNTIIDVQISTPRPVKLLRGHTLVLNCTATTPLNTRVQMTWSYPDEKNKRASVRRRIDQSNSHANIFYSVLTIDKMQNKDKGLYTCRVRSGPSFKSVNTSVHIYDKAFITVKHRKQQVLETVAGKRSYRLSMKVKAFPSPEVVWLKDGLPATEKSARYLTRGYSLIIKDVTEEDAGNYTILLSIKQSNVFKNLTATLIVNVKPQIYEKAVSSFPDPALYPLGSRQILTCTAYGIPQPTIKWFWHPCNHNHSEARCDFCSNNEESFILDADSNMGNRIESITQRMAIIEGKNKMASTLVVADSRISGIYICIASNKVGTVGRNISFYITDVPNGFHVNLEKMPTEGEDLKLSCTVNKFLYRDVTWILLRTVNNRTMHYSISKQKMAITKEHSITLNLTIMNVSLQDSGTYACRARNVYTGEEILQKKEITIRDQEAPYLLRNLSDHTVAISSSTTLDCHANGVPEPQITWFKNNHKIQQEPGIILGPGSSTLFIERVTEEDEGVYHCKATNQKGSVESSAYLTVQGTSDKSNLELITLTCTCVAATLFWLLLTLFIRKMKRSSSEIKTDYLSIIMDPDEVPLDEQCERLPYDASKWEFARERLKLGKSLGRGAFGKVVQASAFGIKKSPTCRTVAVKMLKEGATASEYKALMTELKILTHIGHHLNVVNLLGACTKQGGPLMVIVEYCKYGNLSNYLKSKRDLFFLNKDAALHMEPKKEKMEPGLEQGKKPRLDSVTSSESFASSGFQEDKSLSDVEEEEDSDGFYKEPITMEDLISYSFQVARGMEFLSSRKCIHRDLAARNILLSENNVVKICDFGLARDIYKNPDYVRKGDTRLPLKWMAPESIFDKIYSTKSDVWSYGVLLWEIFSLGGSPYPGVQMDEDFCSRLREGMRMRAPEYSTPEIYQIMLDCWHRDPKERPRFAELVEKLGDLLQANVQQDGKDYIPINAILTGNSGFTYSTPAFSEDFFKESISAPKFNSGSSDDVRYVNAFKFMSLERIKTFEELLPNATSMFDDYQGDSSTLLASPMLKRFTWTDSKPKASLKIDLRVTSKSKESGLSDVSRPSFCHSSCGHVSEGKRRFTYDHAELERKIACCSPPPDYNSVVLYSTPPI
Chain of Ephrin type-A receptor 2 (P29317 whole entry): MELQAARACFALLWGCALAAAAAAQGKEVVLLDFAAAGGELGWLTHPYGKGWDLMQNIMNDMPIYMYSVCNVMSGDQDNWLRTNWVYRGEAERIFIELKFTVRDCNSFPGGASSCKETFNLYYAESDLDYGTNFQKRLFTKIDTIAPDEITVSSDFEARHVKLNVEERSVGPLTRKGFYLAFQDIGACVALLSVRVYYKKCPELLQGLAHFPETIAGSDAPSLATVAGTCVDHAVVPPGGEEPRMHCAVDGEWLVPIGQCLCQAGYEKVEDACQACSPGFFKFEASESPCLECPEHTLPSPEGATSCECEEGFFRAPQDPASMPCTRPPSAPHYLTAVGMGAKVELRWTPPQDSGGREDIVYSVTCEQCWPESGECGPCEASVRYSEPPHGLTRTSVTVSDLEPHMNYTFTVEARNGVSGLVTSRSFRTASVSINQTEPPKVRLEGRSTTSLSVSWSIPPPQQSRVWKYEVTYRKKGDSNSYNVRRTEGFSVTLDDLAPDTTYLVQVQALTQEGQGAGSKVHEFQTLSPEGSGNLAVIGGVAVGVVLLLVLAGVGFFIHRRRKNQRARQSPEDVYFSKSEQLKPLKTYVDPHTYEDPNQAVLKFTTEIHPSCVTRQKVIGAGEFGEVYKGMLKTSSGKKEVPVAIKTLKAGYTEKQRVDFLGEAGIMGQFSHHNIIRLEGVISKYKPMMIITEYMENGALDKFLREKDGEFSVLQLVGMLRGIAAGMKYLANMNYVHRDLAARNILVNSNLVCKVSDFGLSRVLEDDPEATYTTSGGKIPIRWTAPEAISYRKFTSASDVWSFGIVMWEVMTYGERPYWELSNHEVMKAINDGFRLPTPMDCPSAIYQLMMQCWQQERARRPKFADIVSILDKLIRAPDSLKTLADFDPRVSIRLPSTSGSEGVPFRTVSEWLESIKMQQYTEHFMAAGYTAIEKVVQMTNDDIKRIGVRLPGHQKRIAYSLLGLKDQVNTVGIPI
Chain of Ephrin type-A receptor 4 (P54764 whole entry): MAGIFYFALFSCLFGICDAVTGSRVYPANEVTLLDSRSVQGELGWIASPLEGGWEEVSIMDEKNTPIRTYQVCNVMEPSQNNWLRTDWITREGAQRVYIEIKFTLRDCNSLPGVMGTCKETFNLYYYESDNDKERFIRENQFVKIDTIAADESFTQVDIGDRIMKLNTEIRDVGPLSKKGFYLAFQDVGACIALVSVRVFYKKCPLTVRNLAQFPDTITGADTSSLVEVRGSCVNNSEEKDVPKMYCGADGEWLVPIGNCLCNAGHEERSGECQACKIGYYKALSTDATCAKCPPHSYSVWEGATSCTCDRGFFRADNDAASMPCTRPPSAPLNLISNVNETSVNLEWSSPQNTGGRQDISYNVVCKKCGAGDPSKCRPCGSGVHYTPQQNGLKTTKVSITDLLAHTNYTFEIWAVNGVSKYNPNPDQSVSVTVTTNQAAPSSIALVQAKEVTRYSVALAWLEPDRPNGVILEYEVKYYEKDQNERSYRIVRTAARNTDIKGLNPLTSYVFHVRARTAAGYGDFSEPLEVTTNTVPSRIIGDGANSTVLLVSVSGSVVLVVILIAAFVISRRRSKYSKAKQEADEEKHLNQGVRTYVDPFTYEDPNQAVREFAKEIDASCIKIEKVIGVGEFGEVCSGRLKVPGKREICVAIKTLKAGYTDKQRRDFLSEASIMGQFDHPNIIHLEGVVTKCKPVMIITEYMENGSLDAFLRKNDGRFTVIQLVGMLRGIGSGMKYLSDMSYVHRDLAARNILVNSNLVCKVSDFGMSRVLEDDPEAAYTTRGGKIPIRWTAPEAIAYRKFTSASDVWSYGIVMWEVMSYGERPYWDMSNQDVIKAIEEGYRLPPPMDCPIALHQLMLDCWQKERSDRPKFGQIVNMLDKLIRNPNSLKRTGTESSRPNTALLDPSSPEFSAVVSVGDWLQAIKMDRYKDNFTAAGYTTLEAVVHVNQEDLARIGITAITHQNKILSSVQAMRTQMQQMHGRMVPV

| deltaTm (Ephrin type-A receptor 2) [K] | deltaTm [1] [K] | deltaTm [2] [K] | deltaTm [3] [K] | deltaTm (Ephrin type-A receptor 4) [K] | deltaTm [4] [K] | deltaTm [5] [K] | deltaTm [6] [K] | deltaTm [7] [K] | deltaTm [8] [K] | SMILES |
| --- | --- | --- | --- | --- | --- | --- | --- | --- | --- | --- |
| 6.9 | 1 | 9 | 3.2 | 3.7 | 4.8 | 2.1 | 3 | 4.2 | 4.6 | COc1cc(-c2cnc3nc2NCCCNS(=O)(=O)c2cc(ccc2OCCN2CCOCC2)N3)ccc1F |
| 0.7 | 0.6 | 1.6 | 1.5 | 0.7 | 3.4 | 1 | 2.1 | 0 | 0.2 | CC(C)Oc1cc(-c2cnc3nc2NCCCNS(=O)(=O)c2cccc(c2)N3)ccc1F |
| 2.9 | 0.1 | 3.1 | 1.8 | 1.3 | 1.3 | 0.6 | 2.6 | 1.1 | 1.8 | COC(=O)c1ccc(-c2cnc3nc2NCCCNS(=O)(=O)c2cccc(c2)N3)cc1OC |
| 9.8 | 2.9 | 3.6 | 4 | 5.3 | 6 | 3.1 | 3.6 | 4.3 | 6.7 | COc1cc(-c2cnc3nc2NCCCNS(=O)(=O)c2cc(ccc2-c2ccc(O)cc2)N3)ccc1F |
| 7.6 | 2 | 6.4 | 3 | 3.6 | 6.1 | 2.7 | -1.3 | 4.2 | 5.5 | COc1cc(-c2cnc3nc2NCCCNS(=O)(=O)c2cc(ccc2C)N3)ccc1F |
| 2.1 | -2.8 | -1.3 | 3.1 | -0.6 | 1.5 | 3.5 | 6.4 | 1.3 | -0.7 | COC(=O)c1cc(-c2cnc3nc2NCCCNS(=O)(=O)c2cccc(c2)N3)ccc1F |

Further lines, the compound ahead of its results:

| SMILES | deltaTm (Ephrin type-A receptor 2) [K] | deltaTm [1] [K] | deltaTm [2] [K] | deltaTm [3] [K] | deltaTm (Ephrin type-A receptor 4) [K] | deltaTm [4] [K] | deltaTm [5] [K] | deltaTm [6] [K] | deltaTm [7] [K] | deltaTm [8] [K] |
| --- | --- | --- | --- | --- | --- | --- | --- | --- | --- | --- |
| COc1cc(-c2cnc3nc2NCCCNS(=O)(=O)c2cccc(c2)N3)c(F)cc1Cl | 9.8 | 0.4 | 9.3 | 3.4 | 4.7 | 5.8 | 2.7 | 3 | 4.9 | 6 |
| O=S1(=O)NCCCNc2nc(ncc2-c2cc(Cl)c(Cl)cc2F)Nc2cccc1c2 | 9.5 | 0.4 | 6.5 | 5.7 | 3.8 | 5.4 | 4.5 | 5.4 | 3.5 | 5.6 |
| O=S1(=O)NCCCNc2nc(ncc2-c2ccc(F)c(Cl)c2)Nc2cccc1c2 | 9.2 | -1.5 | 6.3 | 5.5 | 4.6 | 4.3 | 3.8 | 7.5 | 5.3 | 5.7 |
| Nc1cc(-c2cnc3nc2NCCCNS(=O)(=O)c2cccc(c2)N3)ccc1F | 7.7 | 0.2 | 6 | 4.6 | 4.4 | 1.7 | 2.2 | 4.9 | 3.6 | 4.6 |
| COc1cc(-c2cnc3nc2NCCCNS(=O)(=O)c2cccc(c2)N3)cc(C(F)(F)F)c1 | 1.8 | 1.4 | 3.3 | 5.8 | 0.8 | 1.1 | 4.9 | 5.3 | 0.9 | 1.3 |
| O=S1(=O)NCCCNc2nc(ncc2-c2cccc(Cl)c2F)Nc2cccc1c2 | 7 | 1.8 | 5.3 | 5.3 | 3.4 | 3.7 | 4 | 6 | 3.1 | 4.6 |
| O=S1(=O)NCCCNc2nc(ncc2Br)Nc2cccc1c2 | 6.7 |  | 4.9 |  |  |  |  |  |  |  |
| CN[C@@H]1C[C@H]2O[C@@](C)([C@@H]1OC)n1c3ccccc3c3c4c(c5c6ccccc6n2c5c31)C(=O)NC4 | 6.4 |  |  |  | 6.2 | 6.1 |  | 10.2 | 6.4 |  |
